Measured values reported in US4205164A, “Antibiotic A201C, A201D and A201E” (priority 1979, dated 1980).
≈ marks a conversion by molar mass, not a printed value. Like-named read-outs stand apart in the source and are kept apart here.

Key:
H. influ. HOLT = assay: MIC by standard agar-dilution test, H. influ. HOLT; format: cell-based
H. influ. R252 = assay: MIC by standard agar-dilution test, H. influ. R252; format: cell-based
Streptococcus 9960 = assay: MIC by standard agar-dilution test, Streptococcus 9960; format: cell-based; conditions: Streptococcus 9960, agar dilution
Text: (§1) The minimal inhibitory concentrations (MIC's) at which A201C, A201D, and A201E inhibit selected Gram positive bacteria, as determined by standard agar-dilution tests, are summarized in Table I: […]

Streptococcus Park = assay: MIC by standard agar-dilution test, Streptococcus Park; format: cell-based
Text: as §1

Streptococcus C203 = assay: MIC by standard agar-dilution test, Streptococcus C203; format: cell-based
Text: as §1

Staph. epi. Epi2 = assay: MIC by standard agar-dilution test, Staph. epi. Epi2; format: cell-based
Text: as §1

Staph. aureus X1.1 = assay: MIC by standard agar-dilution test, Staph. aureus X1.1; format: cell-based; conditions: Staphylococcus aureus; Staph. aureus X1.1, agar dilution
Text: as §1

Staph. aureus X400 = assay: MIC by standard agar-dilution test, Staph. aureus X400; format: cell-based; conditions: Staphylococcus aureus
Text: as §1

Staph. aureus V41 = assay: MIC by standard agar-dilution test, Staph. aureus V41; format: cell-based; conditions: Staphylococcus aureus
Text: as §1

Streptococcus X66 = assay: MIC by standard agar-dilution test, Streptococcus X66; format: cell-based
Text: as §1

Staph. aureus S13E = assay: MIC by standard agar-dilution test, Staph. aureus S13E; format: cell-based; conditions: Staphylococcus aureus
Text: as §1

Staph. epi. Epi1 = assay: MIC by standard agar-dilution test, Staph. epi. Epi1; format: cell-based
Text: as §1

[1] = system: experimental bacterial infections; assay: In vivo therapeutic activity against experimental bacterial infections (general statement); conditions: mice
Description: (§2) One hour and five hours later the mice are given a subcutaneous (S.C.) dose of the compound in 60% propylene glycol. The compound is administered at five different dosage levels (eight mice for each dosage level). The animals are observed for 7 days and the number of survivors is noted. For each organism, the ED50 value is calculated using the method of W. Wick, J. Bacteriol. 81, 233 (1961).

pKa = format: physicochemical; conditions: 66% dmf-h2o
[2] = system: Diplococcus pneumoniae Park I; assay: Therapy of mouse infection, Diplococcus pneumoniae Park I; format: in vivo, Mice; conditions: 1 and 5 hour post infection, 7 days
Description: as §2
(§3) ^b Compound administered subcutaneously (S.C.), 1 and 5 hour post

[3] = system: Staphylococcus aureus 3055; assay: Therapy of mouse infection, Staphylococcus aureus 3055; format: in vivo, Mice; conditions: 1 and 5 hour post infection, 7 days
Description: as §2, §3

[4] = system: Streptococcus pyogenes C203; assay: Therapy of mouse infection, Streptococcus pyogenes C203; format: in vivo, Mice; conditions: 1 and 5 hour post infection, 7 days
Description: as §2, §3

[5] = system: pathogenic microorganisms, particularly Gram positive bacteria; assay: Inhibition of growth of pathogenic microorganisms (general statement); format: cell-based
[6] = H. influ. R252, agar dilution, read-out: MIC

Work on COC(COC1OC(C)C(OC)C(OC)C1O)=C1OC(Oc2ccc(C=C(C)C(=O)NC3C(CO)OC(n4cnc5c(N(C)C)ncnc54)C3O)cc2)C(O)C1O (stereo not drawn) [Factor A201A, reference compound] yielded an MIC (H. influ. HOLT) of 8 µg/mL (≈ 9.96 µM), an MIC (H. influ. R252; [6]) of 4 µg/mL (≈ 4.98 µM) and an MIC (Streptococcus 9960) of 64 µg/mL (≈ 79.7 µM). The MIC (Streptococcus Park) was 4 µg/mL (≈ 4.98 µM), the MIC (Streptococcus C203) was 0.25 µg/mL (≈ 0.311 µM) and the MIC (Staph. epi. Epi2) was 8 µg/mL (≈ 9.96 µM). The MIC (Staph. aureus X1.1) was 1 µg/mL (≈ 1.25 µM), the MIC (Staph. aureus X400) was 1 µg/mL (≈ 1.25 µM) and the MIC (Staph. aureus V41; Staph. aureus V41, agar dilution, read-out: MIC) was 16 µg/mL (≈ 19.9 µM). The MIC (Streptococcus X66) was 8 µg/mL (≈ 9.96 µM), the MIC (Staph. aureus S13E) was 1 µg/mL (≈ 1.25 µM) and the MIC (Staph. epi. Epi1) was 16 µg/mL (≈ 19.9 µM).
For COC(COC1OC(C)C(OC)C(OC)C1O)=C1OC(Oc2ccc(C=C(C)C(=O)NC3C(CO)OC(n4cnc5c(N(C)C)ncnc54)C3O)cc2O)C(O)C1O (stereo not drawn) [Factor C], the MIC (H. influ. HOLT) was 132 µg/mL (≈ 161 µM), the “in vivo therapeutic activity against experimental bacterial infections” value ([1]; listed as A201C) was “has shown in vivo therapeutic activity against experimental bacterial infections” and the “in vivo therapeutic activity against experimental bacterial infections” value ([1]; listed as Formula II) was “has shown in vivo therapeutic activity against experimental bacterial infections in mice”. The MIC (H. influ. R252) was 32 µg/mL (≈ 39.1 µM), the MIC (Streptococcus 9960) was over 128 µg/mL and the pKa (pKa) was 11.4. The MIC (Streptococcus Park) was 8 µg/mL (≈ 9.77 µM), the MIC (Streptococcus C203) was 1 µg/mL (≈ 1.22 µM) and the MIC (Staph. epi. Epi2) was 64 µg/mL (≈ 78.2 µM). The “Survivors/Total No. of Mice” value ([2]; 4.378 mg/kg S.C.) was 0/8, the “Survivors/Total No. of Mice” value ([2]; 8.75 mg/kg S.C.) was 0/8 and the “Survivors/Total No. of Mice” value ([2]; 17.5 mg/kg S.C.) was 0/8. For the same compound, the “Survivors/Total No. of Mice” value ([2]; 35 mg/kg S.C.) was 0/8, the “Survivors/Total No. of Mice” value ([2]; 70 mg/kg S.C.) was 0/8 and the ED50 ([2]; Streptococcus pneumoniae, sc, 168 h, S.C., IP infection 260 LD50's) was over 70 mg/kg. The “Survivors/Total No. of Mice” value ([3]; 2.19 mg/kg S.C.) was 0/8, the “Survivors/Total No. of Mice” value ([3]; 4.375 mg/kg S.C.) was 1/8 and the “Survivors/Total No. of Mice” value ([3]; 8.75 mg/kg S.C.) was 3/8. For the same compound, the “Survivors/Total No. of Mice” value ([3]; 17.5 mg/kg S.C.) was 0/8, the “Survivors/Total No. of Mice” value ([3]; 35 mg/kg S.C.) was 5/8 and the ED50 ([3]; Staphylococcus aureus, 3055, sc, 168 h, S.C., IP infection 260 LD50's) was 26 mg/kg. The “Survivors/Total No. of Mice” value ([4]; 2.19 mg/kg S.C.) was 0/8, the “Survivors/Total No. of Mice” value ([4]; 4.375 mg/kg S.C.) was 4/8 and the “Survivors/Total No. of Mice” value ([4]; 8.75 mg/kg S.C.) was 6/8. The “Survivors/Total No. of Mice” value ([4]; 17.5 mg/kg S.C.) was 8/8, the “Survivors/Total No. of Mice” value ([4]; 35 mg/kg S.C.) was 8/8 and the ED50 ([4]; Streptococcus pyogenes, C203, sc, 168 h, S.C., IP infection 243 LD50's) was 5.3 mg/kg. It also gave an MIC (Staph. aureus X1.1) of 8 µg/mL (≈ 9.77 µM), an MIC (Staph. aureus X400) of 8 µg/mL (≈ 9.77 µM) and an MIC (Staph. aureus V41; V41) of over 128 µg/mL. For the same compound, the MIC (Streptococcus X66) was 64 µg/mL (≈ 78.2 µM), the “inhibition of growth of pathogenic microorganisms” value (“inhibition” below) [5] was “inhibit the growth of certain pathogenic microorganisms, particularly Gram positive bacteria” and the MIC (Staph. aureus S13E) was 8 µg/mL (≈ 9.77 µM). The MIC (Staph. epi. Epi1) was 128 µg/mL (≈ 156 µM).
With COC(CO)=C1OC(Oc2ccc(C=C(C)C(=O)NC3C(CO)OC(n4cnc5c(N(C)C)ncnc54)C3O)cc2)C(O)C1O (stereo not drawn) [Factor D] the MIC (H. influ. HOLT) was 128 µg/mL (≈ 204 µM), the MIC (H. influ. R252; [6]) was 64 µg/mL (≈ 102 µM) and the MIC (Streptococcus 9960) was over 128 µg/mL. It also gave an MIC (Streptococcus Park) of 64 µg/mL (≈ 102 µM), an MIC (Streptococcus C203) of 8 µg/mL (≈ 12.7 µM) and an MIC (Staph. epi. Epi2) of 128 µg/mL (≈ 204 µM). The MIC (Staph. aureus X1.1) was 32 µg/mL (≈ 50.9 µM), the MIC (Staph. aureus X400) was 64 µg/mL (≈ 102 µM) and the MIC (Staph. aureus V41; V41) was over 128 µg/mL. The MIC (Streptococcus X66) was over 128 µg/mL, the “inhibition” value [5] was “inhibit the growth of certain pathogenic microorganisms, particularly Gram positive bacteria” and the MIC (Staph. aureus S13E) was 32 µg/mL (≈ 50.9 µM). For the same compound, the MIC (Staph. epi. Epi1) was 128 µg/mL (≈ 204 µM).
For COC(COC1OC(C)C(OC)C(OC)C1O)C1OC(Oc2ccc(C=C(C)C(=O)NC3C(CO)OC(n4cnc5c(N(C)C)ncnc54)C3O)cc2)C(O)C1O (stereo not drawn) [Factor E], the MIC (H. influ. HOLT) was 32 µg/mL (≈ 39.8 µM), the MIC (H. influ. R252; [6]) was 32 µg/mL (≈ 39.8 µM) and the MIC (Streptococcus 9960) was over 128 µg/mL. It also gave an MIC (Streptococcus Park) of 16 µg/mL (≈ 19.9 µM), an MIC (Streptococcus C203) of 1 µg/mL (≈ 1.24 µM) and an MIC (Staph. epi. Epi2) of 64 µg/mL (≈ 79.5 µM). The MIC (Staph. aureus X1.1) was 16 µg/mL (≈ 19.9 µM), the MIC (Staph. aureus X400) was 16 µg/mL (≈ 19.9 µM) and the MIC (Staph. aureus V41; V41) was 128 µg/mL (≈ 159 µM). The MIC (Streptococcus X66) was 64 µg/mL (≈ 79.5 µM), the “inhibition” value [5] was “inhibit the growth of certain pathogenic microorganisms, particularly Gram positive bacteria” and the MIC (Staph. aureus S13E) was 16 µg/mL (≈ 19.9 µM). It also gave an MIC (Staph. epi. Epi1) of 64 µg/mL (≈ 79.5 µM).
